Assay results as given in US7767798B2, “Loganin analogues and a process for the preparation thereof” (priority 2005, dated 2010).
Converted amounts (≈) assume the structure as drawn. Like-named read-outs stand apart in the source and are kept apart here.

How the values were obtained:
[1] = tested on: breast (MCF-7) cancer cell line; test: MTT cytotoxicity assay, MCF-7; assay type: cell-based, human; settings: for IC50: Homo sapiens
Description: (§1) Cytotoxicity testing In-vitro was done by the method of Woerdenberg et al^17. 2×10^3 cells/well were incubated in the 5% CO2, 95% atmosphere and 37° C. in CO2 incubator for 24 h to enable them to adhere properly to the 96 well polysterene microplate (Grenier, Germany). Test compounds dissolved in 100% DMSO (Merck, Germany) in at least five doses were added and left for four hour after which the compound plus media was replaced with fresh media and the cell were incubated for another 48 h in the CO2 incubator at 37° C. […] Then, 10 μL from 5 mg/ml stock of MTT [3-(4,5-dimethylthiazol-2-yl)-2,5-diphenyltetrazolium bromide; Sigma M 2128] was added, and plate were incubated at 37° C. for 4 h. 100 μL of dimethylsulfoxide (DMSO, Merck, Germany) were added to all wells and mixed thoroughly to dissolve the dark blue crystal. After a few minute at room temperature to ensure that all crystal were dissolve, the plate were read on a Spectra Max 190 Microplate Elisa Reader (Molecular Devices Inc., U.S.A), at 570 nm. Plate were normally read within 1 h of adding the DMSO. The experiment was done in triplicate and the inhibitory concentration (IC) values were calculated as; % INHIBITION=[1−OD (570 nm) of sample well/OD (570 nm) of control well]×100. IC50 is the concentration μg/mL required for 50% inhibition of cell growth as compared to that of untreated control.

[2] = tested on: Ovary (PA-1) cancer cell line; test: MTT cytotoxicity assay, PA-1; assay type: cell-based, human; settings: for IC50: Homo sapiens, read-out: PA-1 IC50
Description: as §1

[3] = tested on: Liver (WRL) cancer cell line; test: MTT cytotoxicity assay, WRL; assay type: cell-based, human; settings: for IC50: Homo sapiens, read-out: WRL IC50
Description: as §1

[4] = tested on: Suspension Colon (COLO-320) cancer cell line; test: MTT cytotoxicity assay, COLO-320; assay type: cell-based, human; settings: for IC50: Homo sapiens; for times higher activity than vinblastine: COLO-320
Description: as §1

[5] = tested on: Adherent colon (CaCo2) cancer cell line; test: MTT cytotoxicity assay, CaCo2; assay type: cell-based, human; settings: for IC50: Homo sapiens
Description: as §1

[6] = tested on: human cancer cell lines (MCF-7, PA-1, WRL, COLO-320, CaCo2); test: MTT cytotoxicity assay, summary over the tested human cancer cell lines; settings: for Dosage range IC50: range of IC50 over the tested cell lines (Table 1); for IC50: Homo sapiens
Description: as §1

[7] = MTT assay, MCF-7 breast cancer cells
[8] = MTT assay, PA-1 ovary cancer cells
[9] = MTT assay, WRL liver cancer cells
[10] = MTT assay, COLO-320 suspension colon cancer cells
[11] = MTT assay, CaCo2 adherent colon cancer cells
[12] = tested human cancer cell lines, comparison with loganin, compound 4 or a neighbouring analogue

SMILES	MCF-7 IC50 [1, 7] [µg/mL]	PA-1 IC50 [2, 8] [µg/mL]	WRL IC50 [3, 9] [µg/mL]	COLO-320 IC50 [4, 10] [µg/mL]	CaCo2 IC50 [5, 11] [µg/mL]	Dosage range IC50 [6] [µg/mL]	cytotoxic activity in words [6, 12]	also measured
COC(=O)C1=COC(O[C@@H]2O[C@H](COC(=O)c3cccc([N+](=O)[O-])c3)[C@@H](OC(C)=O)[C@H](OC(C)=O)[C@H]2OC(C)=O)C2C1CC(OC(C)=O)C2C (stereo partly drawn) [Compound 12, 2′,3′,4′,7-Tetra-O-acetyl-6′-O-(3′″)-nitrobenzoyl loganin]	1.25	0.85	3.20	0.44	1.00	0.44 to 3.20	slightly decreased the activity	
CCCCCCCCCCCCCC(=O)OC[C@H]1O[C@@H](OC2OC=C(C(=O)OC)C3CC(OC(C)=O)C(C)C23)[C@H](OC(C)=O)[C@@H](OC(C)=O)[C@@H]1OC(C)=O (stereo partly drawn) [Compound 7, 2′,3′,4′,7-Tetra-O-acetyl-6′-O-myristoyl loganin]	24.60	6.5	58.50	30.00		6.5 to 59.0		
COC(=O)C1=CO[C@@H](O[C@@H]2O[C@H](COC(c3ccccc3)(c3ccccc3)c3ccccc3)[C@@H](O)[C@H](O)[C@H]2O)[C@@H]2[C@@H](C)[C@@H](O)C[C@H]12 [Compound 2, 6′-O-trityl loganin]	1.00	0.65	1.86	0.25	0.56	0.25 to 2.0		cytotoxic activity in words [6]: enhanced cytotoxic activity
COC(=O)C1=COC(O[C@@H]2O[C@H](CO)[C@@H](OC(C)=O)[C@H](OC(C)=O)[C@H]2OC(C)=O)C2C1CC(OC(C)=O)C2C (stereo partly drawn) [Compound 4, 2′,3′,4′,7-tetra-O-acetyl loganin]							abolished cytotoxicity	
COC(=O)C1=CO[C@@H](O[C@@H]2O[C@H](CO)[C@@H](O)[C@H](O)[C@H]2O)[C@@H]2[C@@H](C)[C@@H](O)C[C@H]12 [Compound 1, loganin]							significant cytotoxic activity	IC50 ([1]; MCF7, read-out: MCF-7 IC50): 4.85 µg/mL (≈ 12.4 µM); IC50 [2]: 1.45 µg/mL (≈ 3.71 µM); IC50 [3]: 1.86 µg/mL (≈ 4.76 µM); IC50 ([4]; COLO 320, read-out: COLO-320 IC50): 1 µg/mL (≈ 2.56 µM); IC50 ([5]; Caco-2, read-out: CaCo2 IC50): 1.28 µg/mL (≈ 3.28 µM); IC50 ([6]; read-out: Dosage range IC50): 1 to 5 µg/mL (≈ 2.56 to 12.8 µM); IC50 ([6]; read-out: concentration/dose used in vitro MTT assay for IC50, range): 1 to 5 µg/mL (≈ 2.56 to 12.8 µM)
CC[C@]1(O)C[C@@H]2CN(CCc3c([nH]c4ccccc34)[C@@](C(=O)OC)(c3cc4c(cc3OC)N(C)[C@H]3[C@@](O)(C(=O)OC)[C@H](OC(C)=O)[C@]5(CC)C=CCN6CC[C@]43[C@@H]65)C2)C1 [Vinblastine, vinblastine, reference compound]								IC50 ([1]; MCF7, MTT assay, MCF-7 breast cancer cells, read-out: MCF-7 IC50): 0.02 µg/mL (≈ 0.0247 µM); IC50 [2, 8]: 0.025 µg/mL (≈ 0.0308 µM); IC50 [3, 9]: 1.45 µg/mL (≈ 1.79 µM); IC50 ([4]; MTT assay, COLO-320 suspension colon cancer cells, read-out: COLO-320 IC50): 0.52 µg/mL (≈ 0.641 µM); IC50 ([5]; Caco-2, MTT assay, CaCo2 adherent colon cancer cells, read-out: CaCo2 IC50): 0.46 µg/mL (≈ 0.567 µM); IC50 ([6]; read-out: Dosage range IC50): 0.02 to 1.45 µg/mL (≈ 0.0247 to 1.79 µM)
CCC(=O)OC[C@H]1O[C@@H](OC2OC=C(C(=O)OC)C3CC(OC(C)=O)C(C)C23)[C@H](OC(C)=O)[C@@H](OC(C)=O)[C@@H]1OC(C)=O (stereo partly drawn) [Compound 5, 2′,3′,4′,7-Tetra-O-acetyl-6′-O-propionylloganin]	1.88	1.24	2.65	0.85	2.85	0.80 to 3.0		concentration/dose used in vitro MTT assay for IC50, range ([6]; MCF-7, PA-1, WRL, COLO-320 and CaCo-2): 0.80 to 3.0 µg/mL
COC(=O)C1=COC(O[C@@H]2O[C@H](COC(c3ccccc3)(c3ccccc3)c3ccccc3)[C@@H](OC(C)=O)[C@H](OC(C)=O)[C@H]2OC(C)=O)C2C1CC(OC(C)=O)C2C (stereo partly drawn) [Compound 3, 2′,3′,4′,7-tetra-O-acetyl-6′-O-trityl loganin]	1.20	1.20	2.44	0.82	3.45	0.80 to 3.5	enhanced cytotoxic activity	
COC(=O)C1=COC(O[C@@H]2O[C@H](COC(=O)c3cc(OC)c(OC)c(OC)c3)[C@@H](OC(C)=O)[C@H](OC(C)=O)[C@H]2OC(C)=O)C2C1CC(OC(C)=O)C2C (stereo partly drawn) [Compound 11, 2′,3′,4′,7-Tetra-O-acetyl-6′-O-3,4,5-trimethoxy benzoyl loganin]	0.25	0.10	0.54	0.04	0.06	0.044 to 3.54	significant enhancement in the cytotoxicity	times higher activity than vinblastine [4]: 13 times; times higher activity than vinblastine ([5]; CaCO2): 8 times
CCCCCCCCCCCC(=O)OC[C@H]1O[C@@H](OC2OC=C(C(=O)OC)C3CC(OC(C)=O)C(C)C23)[C@H](OC(C)=O)[C@@H](OC(C)=O)[C@@H]1OC(C)=O (stereo partly drawn) [Compound 6, 2′,3′,4′,7-Tetra-O-acetyl-6′-O-lauroylloganin]	0.24	0.15	0.85	0.04	0.42	0.04 to 0.85		times higher activity than vinblastine [4]: 13 times
COC(=O)C1=COC(O[C@@H]2O[C@H](COC(=O)C=C(C)C)[C@@H](OC(C)=O)[C@H](OC(C)=O)[C@H]2OC(C)=O)C2C1CC(OC(C)=O)C2C (stereo partly drawn) [Compound 10, 2′,3′,4′,7-Tetra-O-acetyl-6′-O-3″,3″-dimethyl acryloylloganin]	1.00	0.65	1.20	0.08	0.80	0.08 to 1.20	significant enhancement of anticancer activity	
C=CC(=O)OC[C@H]1O[C@@H](OC2OC=C(C(=O)OC)C3CC(OC(C)=O)C(C)C23)[C@H](OC(C)=O)[C@@H](OC(C)=O)[C@@H]1OC(C)=O (stereo partly drawn) [Compound 9, 2′,3′,4′,7-Tetra-O-acetyl-6′-O-acryloyl loganin]							totally abolished the activity	
